Read-outs that look alike come from different tables or passages of the source.
Assays:
[1] = In vivo metabolite identification (MetID) after concomitant omeprazole/D3-omeprazole administration, mouse plasma and brain; design: species or system Male ICR mice; key to D, i.p. route (brain): found / not found / E, i.v. route (brain): found / not found / F, p.o. route (brain): found / not found / A, i.p. route (plasma): found / not found / B, i.v. route (plasma): found / not found / C, p.o. route (plasma): found / not found: O, found; -, not found; details: for D, i.p. route (brain): found / not found / A, i.p. route (plasma): found / not found: 50 mg/kg omeprazole/D3-omeprazole 1:1, i.p.; for D, i.p. route (brain): found / not found / E, i.v. route (brain): found / not found / F, p.o. route (brain): found / not found: mouse brain; for A, i.p. route (plasma): found / not found / B, i.v. route (plasma): found / not found / C, p.o. route (plasma): found / not found: mouse plasma; for E, i.v. route (brain): found / not found / B, i.v. route (plasma): found / not found: 50 mg/kg omeprazole/D3-omeprazole 1:1, i.v.; for samples (matrix/route) in which the metabolite was observed: 50 mg/kg omeprazole/D3-omeprazole 1:1, mice; for F, p.o. route (brain): found / not found / C, p.o. route (plasma): found / not found: 50 mg/kg omeprazole/D3-omeprazole 1:1, p.o.
Description: The LC–QTOF-MS system was consisted of a chromatographic pump system (Shimadzu CBM–20A/LC–20AD, Shimadzu Scientific Instruments, Riverwood Dr, Columbia, SC, USA), an auto-sampler system (Eksigent CTC HTS PAL, Sciex, Redwood City, CA, USA), equipped with a mass spectrometer (TripleTOF^TM 5600, Sciex, Redwood City, CA, USA). Chromatographic separation was performed using reversed-phase C18 columns (Phenomenex® Kinetex XB–C18 column; 2.1 × 50 mm for bioanalytical sample quantification and 2.1 × 100 mm for MetID). The HPLC mobile phase was comprised of distilled/deionized water containing 0.1% formic acid (phase A) and acetonitrile containing 0.1% formic acid (phase B) with a binary gradient program. The LC–gradient was optimized as follows: 3.2 min for the quantification (0–0.5 min, 5% B; 0.5–1.2 min, 5–95% B; 1.2–1.4 min, 95% B; 1.4–1.5 min, 95–5% B; and 1.5–3.2 min, 5% B with a flow rate of 0.4 mL/min) and 23 min for MetID (0–1 min, 5% B; 1–13 min, 5–40% B; 13–13.5 min, 40–45% B; 13.5–15.5 min, 45–90% B; 15.5–17.9 min, 90% B; 17.9–18 min, 90–5% B; and 18–23 min, 5% B with a flow rate of 0.3mL/min). In particular, the LC separation conditions for MetID studies were optimized where the peaks of metabolites were separated as much as possible. This was critical in searching for any relevant metabolites originated from omeprazole with unique isotope ratio 1:1.
The single reaction monitoring at high sensitivity option (SRMHS) in the product ion scan was used for the quantification of PK as well as MetID samples. The information-dependent analysis (IDA) method including high resolution TOF full scan and seven unique information-dependent product ion scans were performed for the MetID study. The ion spray voltage (ISVF) was set at 5500 V. The source gas (nebulizer [GS1, ion source gas1] and heater [GS2, ion source gas2]) was set at 50 psi, and the source temperature was set at 500 °C with the curtain gas (CUR) flow of […].
A separate in vivo MetID study was conducted. A total of 50 mg/kg (1:1 ratio of omeprazole and D3–omeprazole) was given through each administration route (p.o., i.v. and i.p.). After administration, blood and brain tissue sampling was conducted in the same manner as the previous PK studies. The collected samples were stored at −80 °C until analysis.
The plasma samples obtained from the study dosed with 50 mg/kg were collected according to the Hamilton pooling method. The pooled plasma sample (a total of 274 μL) was transferred to a clean tube, and 1 mL of ACN was added. The pretreated samples were centrifuged at 10,000 rpm for 5 min, and 1100 μL of the supernatant was evaporated to dryness under vacuum in a centrifugal evaporator (CVE–3110, Eyela, Tokyo, Japan) connected to cold trap (UT–1000, Eyela, Tokyo, Japan). The dried residue was re-constituted, shaken and centrifuged. After centrifugation, the supernatant was transferred to an LC–vial for analysis.
The metabolites of omeprazole were investigated using an LC–QTOF–MS assay. […] In this case, any metabolites having a mass difference of 3 daltons between omeprazole and its stable isotope D3–omeprazole were thoroughly searched as possible drug-related metabolites.

[2] = Pharmacokinetic study of omeprazole in mice after i.v., i.p. and p.o. administration (plasma and brain, LC-QTOF-MS); assay type: in vivo, Male ICR mice; details: 10 mg/kg; for Kp: brain/plasma; for bioavailability: read-out: BA (bioavailability)
Description: Omeprazole formulation was freshly prepared on the day of experiment. Mice were randomly distributed into three different groups (twelve mice per group; p.o. group, i.v. group and i.p. group) and received 10 mg/kg of omeprazole. […] Blood was drawn into the heparinized tubes through cardiac puncture and was immediately centrifuged at 10,000 rpm for 5 min. The supernatant of the centrifuged samples was transferred to the clean tubes and stored at −80 °C until analysis. […] The homogenized samples were stored at −80 °C until usage. • Plasma samples: Ten microliters of the mouse plasma samples were placed in cluster tubes. […] Hundred microliters of ACN containing internal standard (ISTD, verapamil) was added to each sample for extraction. The mixture was capped, gently shaken for approximately 1 min and then was centrifuged for 5 min at 10,000 rpm (4 °C). Following the centrifugation, 50 μL supernatant was transferred to a clean test tube and was diluted with 100 μL of distilled water. […] Ten microliters of the mouse brain homogenate were placed in cluster tubes. […] Hundred microliters of ACN containing internal standard (ISTD, verapamil) was added to each sample for extraction. The mixture was capped, gently shaken for approximately 1 min and then centrifuged for 5 min at 10,000 rpm (4 °C). Following the centrifugation, 50 μL supernatant was transferred to a clean test tube and was diluted with 100 μL of distilled water. The resulting mixture was then transferred to an LC-vial, and 10 μL was injected to the LC–QTOF–MS. • Standard (STD) and quality control (QC) samples: […] The mixture was capped, gently shaken for approximately 1 min and then centrifuged for 5 min at 10,000 rpm (4 °C). Following the centrifugation, 50 μL supernatant was transferred to a clean test tube and was diluted with 100 μL of distilled water. The resulting mixture was then transferred to an LC–vial, and 10 μL was injected to the LC–QTOF–MS. Data acquisition and LC–QTOF-MS operation was conducted using Analyst® TF Version 1.6 (Sciex). MultiQuant® Version 2.1.1 (Sciex) was used for the peak integration of omeprazole for quantification. PeakView® Version 2.2 and MetabolitePilot^TM Version 2.0.2 were used for the structural elucidation of omeprazole metabolites. Pharmacokinetic parameters were calculated in a non-compartmental analysis using WinNonlin® version 8.0.0 (Certara, Princeton, NJ, USA). The developed LC–QTOF-MS method was successfully applied to determine the PK parameters after i.v., i.p. and p.o. administration at a dose level of 10 mg/kg each for omeprazole in mice. During the sample preparation of the PK samples, QC samples were included for the assurance of the bioanalytical run. All the PK samples were within the range of the qualified calibration range (3.02~6670 ng/mL). Final concentrations were calculated by considering the dilution factors (e.g., 4× and 2× of the concentrations obtained from the brain and plasma, respectively). Each PK parameters were measured by non-compartmental analysis using WinNonlin (version 8.0.0). […] (Kp) = AUCbrain/AUCplasma(1)

COc1ccc2[nH]c(SCc3ncc(C)c(OC)c3C)nc2c1 [Metabolite M15, omeprazole sulfide]
D, i.p. route (brain): found / not found [1]: O | A, i.p. route (plasma): found / not found [1]: O | E, i.v. route (brain): found / not found [1]: O | B, i.v. route (plasma): found / not found [1]: O | samples (matrix/route) in which the metabolite was observed ([1]; 50 mg/kg): all plasma samples (all dosing routes) and all brain samples (all dosing routes) | F, p.o. route (brain): found / not found [1]: O | C, p.o. route (plasma): found / not found [1]: O

COc1ccc2nc(S(=O)(=O)Cc3ncc(C)c(OC)c3C)[nH]c2c1 [Metabolite M14, omeprazole sulfone]
D, i.p. route (brain): found / not found [1]: O | A, i.p. route (plasma): found / not found [1]: O | E, i.v. route (brain): found / not found [1]: O | B, i.v. route (plasma): found / not found [1]: O | samples (matrix/route) in which the metabolite was observed [1]: all plasma samples (all dosing routes) and all brain samples (all dosing routes) | F, p.o. route (brain): found / not found [1]: O | C, p.o. route (plasma): found / not found [1]: O

COc1c(C)cnc(C[S+]([O-])c2nc3cc(O[C@@H]4O[C@H](C(=O)O)[C@@H](O)[C@H](O)[C@H]4O)ccc3[nH]2)c1C (stereo partly shown) [Metabolite M2]
D, i.p. route (brain): found / not found [1]: O | A, i.p. route (plasma): found / not found [1]: O | E, i.v. route (brain): found / not found [1]: O | B, i.v. route (plasma): found / not found [1]: O | samples (matrix/route) in which the metabolite was observed [1]: all samples except the brain–PO route sample | F, p.o. route (brain): found / not found [1]: - | C, p.o. route (plasma): found / not found [1]: O

COc1ccc2[nH]c(SCC(NC(C)=O)C(=O)O)nc2c1 (stereo not shown) [Metabolite M1]
D, i.p. route (brain): found / not found [1]: - | A, i.p. route (plasma): found / not found [1]: O | E, i.v. route (brain): found / not found [1]: - | B, i.v. route (plasma): found / not found [1]: O | samples (matrix/route) in which the metabolite was observed [1]: plasma–IV route and plasma-IP route samples | F, p.o. route (brain): found / not found [1]: - | C, p.o. route (plasma): found / not found [1]: -

COc1ccc2[nH]c([S+]([O-])Cc3ncc(C)c(OC)c3C)nc2c1 (stereo not shown) [Omeprazole]
brain-to-plasma partition coefficient (Kp) = AUCbrain/AUCplasma ([2]; i.p., AUClast): 0.0681 | Kp ([2]; male, ICR, mouse, ip, i.p., AUClast, read-out: brain-to-plasma partition coefficient (Kp) = AUCbrain/AUCplasma): 0.068 | Kp ([2]; male, ICR, mouse, ip, i.p., read-out: Brain/Plasma Ratio): 0.0681 | Kp ([2]; male, ICR, mouse, iv, i.v., AUClast, read-out: brain-to-plasma partition coefficient (Kp) = AUCbrain/AUCplasma): 0.15 | Kp ([2]; male, ICR, mouse, iv, i.v., read-out: Brain/Plasma Ratio): 0.147 | Kp ([2]; male, ICR, mouse, po, p.o., AUClast, read-out: brain-to-plasma partition coefficient (Kp) = AUCbrain/AUCplasma): 0.064 | Kp ([2]; male, ICR, mouse, po, p.o., read-out: Brain/Plasma Ratio): 0.0643 | AUC(0-t) ([2]; male, ICR, mouse, ip, brain): 72.8 ng·h/mL | half-life ([2]; male, ICR, mouse, ip, brain): 51.3 min | AUC(0-t) ([2]; male, ICR, mouse, ip, plasma): 1070 ng·h/mL | Cmax ([2]; male, ICR, mouse, ip, plasma): 4890 ng/mL | half-life ([2]; male, ICR, mouse, ip, plasma): 28.8 min | AUC(0-t) ([2]; male, ICR, mouse, iv, brain): 652 ng·h/mL | half-life ([2]; male, ICR, mouse, iv, brain): 48.2 min | AUC(0-t) ([2]; male, ICR, mouse, iv, plasma): 4440 ng·h/mL | Cmax ([2]; male, ICR, mouse, iv, plasma): 67600 ng/mL | Vd ([2]; male, ICR, mouse, iv, plasma): 1.49 L/kg | clearance ([2]; male, ICR, mouse, iv, plasma): 37.8 mL/min/kg | half-life ([2]; male, ICR, mouse, iv, plasma): 27.4 min | bioavailability ([2]; male, ICR, mouse, plasma, ip): 24.1% | bioavailability ([2]; male, ICR, mouse, plasma, po): 5.31% | AUC(0-t) ([2]; male, ICR, mouse, po, brain): 15.2 ng·h/mL | Cmax ([2]; male, ICR, mouse, po, brain): 37.8 ng/mL | half-life ([2]; male, ICR, mouse, po, brain): 44.6 min | AUC(0-t) ([2]; male, ICR, mouse, po, plasma): 236 ng·h/mL | Cmax ([2]; male, ICR, mouse, po, plasma): 610 ng/mL | half-life ([2]; male, ICR, mouse, po, plasma): 54.8 min | brain-to-plasma partition coefficient (Kp) = AUCbrain/AUCplasma ([2]; p.o., AUClast): 0.0643 | D, i.p. route (brain): found / not found [1]: O | A, i.p. route (plasma): found / not found [1]: O | E, i.v. route (brain): found / not found [1]: O | B, i.v. route (plasma): found / not found [1]: O | F, p.o. route (brain): found / not found [1]: O | C, p.o. route (plasma): found / not found [1]: O

COc1c(C)cnc(CSc2nc3cc(O)ccc3[nH]2)c1C [Metabolite M17]
D, i.p. route (brain): found / not found [1]: O | A, i.p. route (plasma): found / not found [1]: - | E, i.v. route (brain): found / not found [1]: O | B, i.v. route (plasma): found / not found [1]: - | samples (matrix/route) in which the metabolite was observed [1]: only from the brain–IP route and brain–IV route | F, p.o. route (brain): found / not found [1]: - | C, p.o. route (plasma): found / not found [1]: -

COc1ccc2[nH]c([S+]([O-])Cc3ncc(C)cc3C)nc2c1 (stereo not shown) [Metabolite M11]
D, i.p. route (brain): found / not found [1]: O | A, i.p. route (plasma): found / not found [1]: O | E, i.v. route (brain): found / not found [1]: O | B, i.v. route (plasma): found / not found [1]: O | samples (matrix/route) in which the metabolite was observed [1]: all plasma samples (all dosing routes) and all brain samples (all dosing routes) | F, p.o. route (brain): found / not found [1]: O | C, p.o. route (plasma): found / not found [1]: O

From paper PMC7400457, “Profiling and Identification of Omeprazole Metabolites in Mouse Brain and Plasma by Isotope Ratio-Monitoring Liquid Chromatography-Mass Spectrometric Method” (Life, 2020)
